Several values for one entry are separate records, joined by “and”; a condition that tells them apart may be missing. Equal values may be shown once.
Test system: WM3248 melanoma cells, 486 antibodies
Test: Reverse phase protein arrays (RPPA)
Format: cell-based, Human
Text: Pellets were snap frozen in liquid nitrogen and shipped to MD Anderson Cancer Center core RPPA facility for RPPA analysis (Table S5). Three biological replicates for each sample were generated.
Nomenclatures on the RPPA heatmaps: name_of_antibody.species_of_antibody.status_of_antibody. V - antibody validated; C - validation of antibody in progress; Q - antibody nonspecific; E – under evaluation; antibodies raised in M - mouse, G - goat, R - rabbit, or T - rat.

[1] = Norm_10: replicates 1-3 and Average, relative to 0

Structure (SMILES): CN(C)c1cccc(Nc2cc(-c3ccccc3)nc(C3CCNCC3)n2)c1 [ARN22089, N1,N1-dimethyl-N3-(6-phenyl-2-(piperidin-4-yl)pyrimidin-4-yl)benzene-1,3-diamine]
- p38.MAPK.R.V Average (Norm_10, normalized to Norm_0): 0.984
- p38.MAPK._pT180_Y182.R.V Average (Norm_10, normalized to Norm_0): 0.822
- p38.a.M.V Average (Norm_10, normalized to Norm_0): 1.035
- p44.42.MAPK.R.V Average (Norm_10, normalized to Norm_0): 1.129
- p70.S6K1.R.V Average (Norm_10, normalized to Norm_0): 1.024
- p90RSK_pT573.R.C Average (Norm_10, normalized to Norm_0): 0.999
- PREX1.R.V normalized RPPA signal [1]: 1.017 and 0.962 and 0.972
- PTEN.R.V normalized RPPA signal [1]: 1.166 and 0.849 and 0.856 and 0.957
- PTPN12.R.V normalized RPPA signal [1]: 0.749 and 0.939 and 0.909
- PYGB.R.V normalized RPPA signal [1]: 1.205 and 1.156 and 1.144
- PYGM.M.C normalized RPPA signal [1]: 0.918 and 2.001 and 1.335
- Puma.R.C normalized RPPA signal [1]: 1.060 and 1.017 and 1.055
- Pyk2_pY402.R.C normalized RPPA signal [1]: 1.111 and 0.863 and 0.946
- RBM15.R.V normalized RPPA signal [1]: 0.891 and 1.000 and 0.960 and 0.950
- RIP3.R.C normalized RPPA signal [1]: 0.942 and 0.921 and 0.948 and 0.937
- RIP.R.C normalized RPPA signal [1]: 0.780 and 1.118 and 1.150 and 1.016
- RPA32.R.V normalized RPPA signal [1]: 1.060 and 1.362 and 1.197 and 1.207
- RPA32_pS4_S8.R.C normalized RPPA signal [1]: 1.546 and 1.295 and 1.489 and 1.443
- RRM1.R.C normalized RPPA signal [1]: 0.939 and 0.806 and 0.945 and 0.897
- RRM2.R.C normalized RPPA signal [1]: 0.757 and 0.774 and 0.866
- RSK1.R.V normalized RPPA signal [1]: 1.143 and 1.201 and 1.128
- RSK.R.C normalized RPPA signal [1]: 0.838 and 1.004 and 0.972
- Rab11.R.C normalized RPPA signal [1]: 1.030 and 0.917 and 0.953
- Rab25.R.V normalized RPPA signal [1]: 1.035 and 0.882 and 0.858 and 0.925
- Rad17_pS645.R.V normalized RPPA signal [1]: 0.792 and 0.966
- Rad23A.R.C normalized RPPA signal [1]: 0.804 and 0.923 and 1.597 and 1.108
- Rad50.R.V normalized RPPA signal [1]: 1.116 and 1.111
- Rad51.R.C normalized RPPA signal [1]: 0.827 and 0.908 and 0.944 and 0.893
- Raptor.R.V normalized RPPA signal [1]: 0.845 and 0.882 and 0.940 and 0.889
- Rb.M.Q normalized RPPA signal [1]: 0.863 and 1.097 and 1.016
- Rb_pS807_S811.R.V normalized RPPA signal [1]: 0.811 and 0.958 and 0.878
- Rheb.M.C normalized RPPA signal [1]: 1.032 and 1.240 and 1.115
- Rictor.R.C normalized RPPA signal [1]: 0.988 and 0.910 and 0.945 and 0.948
- Rictor_pT1135.R.V normalized RPPA signal [1]: 0.873 and 0.950 and 0.954
- S6.M.V normalized RPPA signal [1]: 1.085 and 0.996 and 1.017
- S6_pS235_S236.R.V normalized RPPA signal [1]: 0.521 and 0.472 and 0.641 and 0.545
- S6_pS240_S244.R.V normalized RPPA signal [1]: 0.582 and 0.274 and 0.654 and 0.504
- SCD.M.V normalized RPPA signal [1]: 0.991 and 1.046
- SDHA.R.V normalized RPPA signal [1]: 0.992 and 0.940 and 0.859 and 0.930
- SF2.R.V normalized RPPA signal [1]: 0.895 and 1.050 and 0.922 and 0.956
- SFRP1.R.V normalized RPPA signal [1]: 0.808 and 0.981 and 1.003 and 0.931
- SGK1.R.V normalized RPPA signal [1]: 1.008 and 0.920 and 1.014 and 0.981
- SGK3.R.V normalized RPPA signal [1]: 0.816 and 0.987 and 0.963 and 0.922
- SHP2.R.V normalized RPPA signal [1]: 0.944 (2×) and 1.029 and 0.972
- SHP.2_pY542.R.C normalized RPPA signal [1]: 1.060 and 0.917 and 0.992 and 0.990
- SIRPαR.V normalized RPPA signal [1]: 0.835 and 1.085 and 0.937 and 0.953
- SLC1A5.R.C normalized RPPA signal [1]: 1.027
- SOD1.M.V normalized RPPA signal [1]: 0.907 and 1.127 and 1.007 and 1.014
- SOD2.R.V normalized RPPA signal [1]: 1.018 and 1.276 and 0.952 and 1.082
- SOX7.R.V normalized RPPA signal [1]: 1.145 and 1.060
- STING.R.V normalized RPPA signal [1]: 0.851 and 0.953
- Shc_pY317.R.C normalized RPPA signal [1]: 0.714 and 5.496 and 1.397 and 2.535
- Slfn11.G.C normalized RPPA signal [1]: 0.876 and 1.082 and 1.481 and 1.146
- Smac.M.Q normalized RPPA signal [1]: 0.850 and 1.137 and 0.963 and 0.983
- Smad1.R.V normalized RPPA signal [1]: 0.960 and 0.924 and 0.963
- Smad3.R.V normalized RPPA signal [1]: 1.062 and 0.979 and 1.026
- Smad4.R.V normalized RPPA signal [1]: 1.013 and 1.128 and 0.985
- Snail.M.Q normalized RPPA signal [1]: 0.664 and 0.941 and 0.860 and 0.822
- Sox2.R.V normalized RPPA signal [1]: 1.126 and 1.008 and 0.910 and 1.015
- Sox17.R.V normalized RPPA signal [1]: 0.905 and 1.111 and 1.000 and 1.005
- Src.M.V normalized RPPA signal [1]: 0.883 and 1.206 and 0.940 and 1.010
- Src_pY416.R.V normalized RPPA signal [1]: 1.030 and 0.914 and 0.902
- Src_pY527.R.V normalized RPPA signal [1]: 1.278 and 0.689 and 0.973
- Stat1_pY701.R.V normalized RPPA signal [1]: 0.995 (2×) and 1.011 and 1.000
- Stat3.R.C normalized RPPA signal [1]: 0.999 and 0.915 and 0.942
- Stat3_pY705.R.C normalized RPPA signal [1]: 1.077 and 1.148 and 1.012 and 1.079
- Stat5a.R.V normalized RPPA signal [1]: 1.155 and 0.661 and 0.766 and 0.861
- Stathmin.1.R.V normalized RPPA signal [1]: 0.870 and 1.129 and 0.982
- Syk.M.V normalized RPPA signal [1]: 0.771 and 0.940 and 1.123 and 0.945
- Synaptophysin.R.C normalized RPPA signal [1]: 0.939 and 1.003 and 0.960
- TAZ.R.V normalized RPPA signal [1]: 0.664 and 1.279 and 1.012
- TEAD.R.C normalized RPPA signal [1]: 0.761 and 0.855 and 1.077 and 0.898
- TFAM.R.V normalized RPPA signal [1]: 0.933 and 0.917 and 0.914 and 0.921
- TFRC.R.V normalized RPPA signal [1]: 0.993 and 0.819 and 0.888 and 0.900
- TIGAR.R.V normalized RPPA signal [1]: 0.948 and 0.928 and 0.972
- TRAP1.M.V normalized RPPA signal [1]: 0.886 and 1.063 and 0.996
- TRIM24.R.C normalized RPPA signal [1]: 0.955 and 1.027
- TRIM25.R.C normalized RPPA signal [1]: 0.793 and 0.863 and 1.102 and 0.919
- TRIP13.R.V normalized RPPA signal [1]: 1.018 and 1.029 and 1.031
- Tau.M.C normalized RPPA signal [1]: 1.047 and 1.298 and 0.928
- Transglutaminase.M.V normalized RPPA signal [1]: 1.016 and 1.436 and 2.172 and 1.541
